Data published in US7105718B2, “Compositions and methods for regulating metabolism in plants” (The Regents of the University of Colorado, priority 2000, dated 2006).
Entries after “also recorded” stand apart in the source; their conditions may differ.

Assays:
cell wall UCP = assay: Flow cytometry of non-permeabilized cells stained with anti-UCP2 antibody for cell wall UCP; format: cell-based, Chlamydomonas reinhardtii; conditions: wild type strains of C. reinhardtii treated with norflurazon; FIG. 3
Procedure: Wild type (CC124, mt−) and cell wall-less (CC, mt+) C. reinhardtii were tested for the presence of UCP by flow cytometry. Non-permeabilized cells were stained with anti-UCP2 antibody (Santa Cruz Technologies). Cells were prepared for staining with goat anti-UCP2 antibody (Santa Cruz Pharmaceuticals) followed by fluorescein conjugated anti-rabbit or goat outer step antibodies, respectively. Data were acquired on a Coulter Elite Epics flow cytometer (Coulter, Hialeah, Fla.) and analyzed with CellQuest software, (Becton Dickinson, San Jose, Calif.). Cells were stained for intracellular peroxide using 6-carboxy-2′-7′-dichlorodihydrofluorescein diacetate (DCF-DA, Molecular Probes, Eugene, Oreg.). Briefly, cells were incubated with DCF-DA for 20 minutes, washed twice in PBS containing 5% fetal calf serum and analyzed flow cytometrically. Mitochondrial membrane potential was assessed using Mitotracker Red (CM-H2XROS, Molecular Probes, Eugene, Oreg.). The cells were resuspended in cold, or room temperature, PBS containing 13% fetal calf serum, 0.5 micromolar Mitotracker Red dye was then added to the suspension. The cells were incubated at 37° C. for 20 minutes, pelleted, and resuspended in prewarmed medium for analysis. […] Each sample population was classified for cell size (forward scatter) and complexity (side scatter), gated on a population of interest and evaluated using 40,000 cells.

[1] = system: wild type strains of algae; assay: Light sensitivity of wild type algae in the presence of the herbicide; format: cell-based, Chlamydomonas reinhardtii; conditions: in the presence of norflurazon

CNc1cnn(-c2cccc(C(F)(F)F)c2)c(=O)c1Cl [norflurazon]
cell wall expression of UCP (cell wall UCP): upregulates cell wall expression of UCP; also recorded: Increased levels of uncoupling protein | light sensitivity of algae [1]: made light-sensitive
